Assay results published in patent US10633570B2, “Anti-ice nucleation activator” (THE SCHOOL CORPORATION KANSAI UNIVERSITY, priority 2015, dated 2020).

Legend:
Format in all cases: physicochemical
[1] = system: Pseudomonas fluorescens; assay: Anti-ice nucleation active performance, droplet-freezing method of Vali, with Pseudomonas fluorescens as ice nucleation active substance; settings: Example 1 solution (1.0 mg/mL); Pseudomonas fluorescens in place of silver iodide
Description: The anti-ice nucleation active performance (supercooling acceleration performance) was measured by using the droplet-freezing method of Vali. More specifically, in accordance with the droplet-freezing method of Vali (FIG. 3), an aluminum film was placed on the copper plate of a cold plate chiller (CoolAce CCA-1000, Eyela), and the film was coated with a silicone oil suspension diluted with acetone and chloroform (a solution of acetone:chloroform=1:2). […]
(§1) The droplet-freezing temperature of each sample was referred to as SampleT50, and the droplet-freezing temperature of the blank sample was referred to as BlankT50. Then, the anti-ice nucleation activity level ΔT50 (° C.) was calculated by the following formula: Formula: ΔT50 (° C.)=BlankT50−SampleT50
A sample for evaluation of Example 1 was prepared in a manner similar to that described in Test Example 1, except that Pseudomonas fluorescens, which is the Pseudomonas bacterium, was used in place of silver iodide, which is an ice nucleation active substance. The anti-ice nucleation active performance (supercooling acceleration performance) was measured by using a test method similar to that described in Test Example 1.

[2] = Anti-ice nucleation activity test with respect to biological material (beef liver), droplet-freezing method of Vali; settings: final concentration 0.1 mg/mL, 10 μL dropped on 1 mm x 1 mm x 1 mm beef liver; blank ultra-pure water; average of three tests
Description: (§2) The anti-ice nucleation active performance (supercooling acceleration performance) was measured by using the droplet-freezing method of Vali. More specifically, in accordance with the droplet-freezing method of Vali (FIG. 3), an aluminum film was placed on the copper plate of a cold plate chiller (CoolAce CCA-1000, Eyela), and the film was coated with a silicone oil suspension diluted with acetone and chloroform (a solution of acetone:chloroform=1:2). Then, each sample for evaluation or the blank sample was dropped (10 μL each) on 30 points of the surface, the temperature was decreased at a rate of 1.0° C./min, and the temperature at which 50% of the 30 droplets were frozen was considered to be T50.
as §1, with “C.)=BlankT50−SampleT50 […]” for “C.)=BlankT50−SampleT50”
The anti-ice nucleation active performance (supercooling acceleration performance) was measured by using a method similar to the droplet-freezing method of Vali described in Test Example 1. […]

[3] = Anti-ice nucleation active performance (supercooling acceleration), droplet-freezing method of Vali, with silver iodide; settings: 100 μL mixed with 900 μL silver iodide 1.0 mg/mL, average of three tests; for Anti-ice nucleation activity level (ΔT50 = BlankT50 − SampleT50): purine base aqueous solution 1.0 mg/mL, cooling 1.0° C./min
Description: Nine hundred microliters of an aqueous solution was prepared by dissolving silver iodide (produced by Wako Pure Chemical Industries, Ltd.) in ultra-pure water to a silver iodide concentration of 1.0 mg/mL.
(§3) A blank sample was prepared by mixing 100 μL of ultra-pure water with 900 μL of the aqueous solution in which silver iodide was dissolved.
as §2, §1
Nine hundred microliters of an aqueous solution was prepared by dissolving silver iodide in ultra-pure water to a silver iodide concentration of 1.0 mg/mL.
as §3
(§4) The results are average values of the results of the test performed three times.
as §3, §4

[4] = adenine concentration series 0.1-6.0 (mM) per Example
[5] = polydeoxyadenylic acid with 6, 9 or 12 adenine bases, 1.0 mg/mL in TE buffer

Molecule	Anti-ice nucleation activity level (ΔT50) [3, 4] [°C]	Anti-ice nucleation activity level (ΔT50 = BlankT50 − SampleT50) [3] [°C]	further results
Nc1ncnc2nc[nH]c12 [Example 1, adenine]	9.2	9.2	Anti-ice nucleation active performance (ΔT50) [1]: 1.0 °C; Anti-ice nucleation activity level with respect to beef liver [2]: 0.9 °C
Nc1nc2nc[nH]c2c(=O)[nH]1 [Example 2, Guanine]	–	1.0	–
O=c1[nH]cnc2nc[nH]c12 [Example 3, Hypoxanthine]	–	2.1	–
Cn1cnc2c1c(=O)[nH]c(=O)n2C [Example 4, Theobromine]	–	1.2	–
Cn1c(=O)c2c(ncn2C)n(C)c1=O [Example 5, Caffeine]	–	1.3	Anti-ice nucleation activity level with respect to beef liver [2]: 0.7 °C
O=c1[nH]c(=O)c2[nH]c(=O)[nH]c2[nH]1 [Example 6, Uric acid]	–	1.8	–
Cn1c(=O)c2[nH]cnc2n(C)c1=O [Example 7, Theophylline]	–	2.0	–
Nc1ncnc2nc[nH]c12 [Example 8, adenine]	1.7	–	–
Nc1ncnc2nc[nH]c12 [Example 9, adenine]	2.3	–	–
Nc1ncnc2nc[nH]c12 [Example 10, adenine]	4.3	–	–
Nc1ncnc2nc[nH]c12 [Example 11, adenine]	4.9	–	–
Nc1ncnc2nc[nH]c12 [Example 12, adenine]	7.8	–	–
Nc1ncnc2nc[nH]c12 [Example 13, adenine]	6.7	–	–
Nc1ncnc2nc[nH]c12 [Example 14, adenine]	7.2	–	–
polydeoxyadenylic acid [Example 15]	–	–	Anti-ice nucleation activity level (ΔT50) [3, 5]: 1.26 °C
polydeoxyadenylic acid [Example 16]	–	–	Anti-ice nucleation activity level (ΔT50) [3, 5]: 1.43 °C
polydeoxyadenylic acid [Example 17]	–	–	Anti-ice nucleation activity level (ΔT50) [3, 5]: 1.60 °C
